Data taken from paper PMC10249031 (ACS Omega, 2023).
Like-named read-outs stand apart in the source and are kept apart here.

Tests used:
[1] = target: EGFR-TK (Homo sapiens, UniProt P00533); assay: ADP-Glo Kinase Assay, EGFR tyrosine kinase inhibition; assay type: biochemical; conditions: for EGFR-TK inhibitory activity (screening): at 1 μM, compared to erlotinib, n = 2
[2] = system: A549 cells; assay: MTT cytotoxicity assay, A549; assay type: cell-based, human; conditions: for Cell viability of A549: 10 μM
[3] = system: Vero cells; assay: MTT cytotoxicity assay, Vero normal cell line; assay type: cell-based, monkey; conditions: Primates, 72 h, read-out: IC50 Vero
[4] = system: A431 cells; conditions: 10 μM, 72 h, MTT
[5] = system: A431 cells; assay: cells; conditions: Homo sapiens, A-431, 72 h, read-out: IC50 A431
[6] = Homo sapiens, A549, 72 h, read-out: IC50 A549

EGFR-TK, sequence (P00533 25-1210): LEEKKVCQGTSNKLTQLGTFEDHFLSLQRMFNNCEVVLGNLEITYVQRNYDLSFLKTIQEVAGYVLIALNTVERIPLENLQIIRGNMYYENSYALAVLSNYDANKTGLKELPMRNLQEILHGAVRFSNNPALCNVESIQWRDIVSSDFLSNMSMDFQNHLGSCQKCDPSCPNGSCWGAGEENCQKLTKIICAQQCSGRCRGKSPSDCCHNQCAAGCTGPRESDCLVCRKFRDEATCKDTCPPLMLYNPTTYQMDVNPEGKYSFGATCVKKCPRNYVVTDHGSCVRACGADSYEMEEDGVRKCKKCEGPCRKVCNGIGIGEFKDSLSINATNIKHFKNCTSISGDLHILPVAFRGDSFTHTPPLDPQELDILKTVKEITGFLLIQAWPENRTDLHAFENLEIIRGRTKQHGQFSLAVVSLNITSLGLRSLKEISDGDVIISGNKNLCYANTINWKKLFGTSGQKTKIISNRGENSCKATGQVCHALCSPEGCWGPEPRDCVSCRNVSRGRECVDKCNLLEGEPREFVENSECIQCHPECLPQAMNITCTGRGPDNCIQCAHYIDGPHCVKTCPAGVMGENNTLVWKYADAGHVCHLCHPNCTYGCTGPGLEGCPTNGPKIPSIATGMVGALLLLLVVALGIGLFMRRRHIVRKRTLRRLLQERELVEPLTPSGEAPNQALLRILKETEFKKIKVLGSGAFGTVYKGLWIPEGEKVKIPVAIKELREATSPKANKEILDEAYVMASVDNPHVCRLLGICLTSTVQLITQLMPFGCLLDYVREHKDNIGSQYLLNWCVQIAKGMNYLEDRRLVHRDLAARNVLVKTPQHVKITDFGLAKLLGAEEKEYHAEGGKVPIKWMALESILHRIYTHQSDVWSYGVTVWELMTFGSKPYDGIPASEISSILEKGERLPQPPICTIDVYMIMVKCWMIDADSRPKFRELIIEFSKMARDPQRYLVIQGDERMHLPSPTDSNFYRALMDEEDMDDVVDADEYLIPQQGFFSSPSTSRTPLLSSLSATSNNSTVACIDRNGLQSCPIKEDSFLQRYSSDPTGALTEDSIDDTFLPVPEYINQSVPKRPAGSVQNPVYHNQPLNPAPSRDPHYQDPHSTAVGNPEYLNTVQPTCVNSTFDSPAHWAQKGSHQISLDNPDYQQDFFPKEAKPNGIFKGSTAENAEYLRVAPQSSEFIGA

Structure (SMILES) | IC50 [5] | IC50 [1] | EGFR-TK inhibitory activity (screening) [1] | Cell viability of A549 ([2]; 72 h, MTT) | IC50 [2, 6] | IC50 [3] | Cell viability of A431 [4] | IC50 ([2]; Homo sapiens, A549, 72 h, read-out: IC50 A549, MTT, 72 h) | IC50 ([2]; read-out: IC50 A549, MTT, 72 h)
COc1ccc(S(=O)(=O)c2c3c4ccccc4n(C)c(-c4ccccc4)c-3c3ccccc23)cc1 [SIQ3] | 17.7 ± 0.35 µM | – | higher EGFR-TK inhibitory activity than erlotinib | more vulnerable | 33.5 ± 0.47 µM | > 100 µM | more susceptible | – | –
C#Cc1cccc(Nc2ncnc3cc(OCCOC)c(OCCOC)cc23)c1 [erlotinib, reference compound] | – | – | – | – | – | 35 ± 1.35 µM | – | 33.3 µM | 33.3 ± 1.88 µM
Cc1ccc(S(=O)(=O)c2c3c4ccccc4n(C)c(-c4ccc(C)cc4C)c-3c3ccccc23)cc1 [SIQ17] | 19.2 ± 0.97 µM | – | higher EGFR-TK inhibitory activity than erlotinib | more vulnerable | 33 ± 0.59 µM | > 100 µM | – | – | –
Cc1ccc(S(=O)(=O)c2c3c4ccccc4n(C)c(-c4ccccc4)c-3c3ccccc23)c(C)c1 [SIQ8] | 14.1 ± 0.73 µM | – | higher EGFR-TK inhibitory activity than erlotinib | more vulnerable | 27.2 ± 0.71 µM | 21.7 ± 0.5 µM | – | – | –

The next lines start with results.

IC50 [5] | IC50 [1] | Structure (SMILES) | EGFR-TK inhibitory activity (screening) [1] | Cell viability of A549 ([2]; 72 h, MTT) | IC50 [2, 6] | IC50 [3] | Cell viability of A431 [4] | IC50 ([2]; Homo sapiens, A549, 72 h, read-out: IC50 A549, MTT, 72 h) | IC50 ([2]; read-out: IC50 A549, MTT, 72 h)
13.1 ± 0.5 µM | – | Cc1ccc(S(=O)(=O)c2c3c4ccccc4n(C)c(-c4ccc(Cl)cc4)c-3c3ccccc23)cc1 [SIQ12] | higher EGFR-TK inhibitory activity than erlotinib | more vulnerable | 23.2 ± 0.42 µM | 7.25 ± 0.12 µM | more susceptible | – | –
9.93 ± 0.45 µM | – | Cn1c(-c2ccccc2)c2c3ccccc3c(S(=O)(=O)c3ccc(Cl)cc3)c-2c2ccccc21 [SIQ5] | higher EGFR-TK inhibitory activity than erlotinib | more vulnerable | 16.8 ± 0.41 µM | 8.06 ± 0.15 µM | more susceptible | – | –
11.9 ± 0.41 µM | – | Cc1ccc(S(=O)(=O)c2c3c4cc(C)ccc4n(C)c(-c4ccccc4)c-3c3ccccc23)cc1 [SIQ19] | higher EGFR-TK inhibitory activity than erlotinib | – | 29.3 ± 0.44 µM | 5.88 ± 0.33 µM | more susceptible | – | –
– | 0.0214 ± 0.00574 µM | Cc1ccc(-c2c3c4ccccc4c(S(=O)(=O)c4ccc(C)cc4)c-3c3ccccc3n2C)cc1 [SIQ10] | higher EGFR-TK inhibitory activity than erlotinib | – | – | – | – | – | –
– | 0.0232 ± 0.00876 µM | COc1ccc(-c2c3c4ccccc4c(S(=O)(=O)c4ccc(C)cc4)c-3c3ccccc3n2C)cc1 [SIQ11] | higher EGFR-TK inhibitory activity than erlotinib | – | – | – | – | – | –
